Reference: patent US8802597B2, “Herbicidal pyrimidines” (E I du Pont de Nemours and Company, priority 2003, dated 2014)

What was measured:
Type in all cases: in vivo
[1] = test system: umbrella sedge (Cyperus difformis); assay: Test B flooded paddy test; conditions: Flood, 1000 g ai/ha; scale 0 to 100
Summary of the method: (§1)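 Visual injury scoring (0 = no effect, 100 = complete control) versus controls made 13 to 15 days after treatment in the greenhouse. Test species were grown in flooded paddy to the 2-leaf stage: rice, barnyardgrass, umbrella sedge, duck salad.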

[2] = test system: duck salad (Heteranthera limosa); assay: Test B flooded paddy test; conditions: Flood, 1000 g ai/ha; scale 0 to 100
Summary of the method: as §1

[3] = test system: rice (Oryza sativa); assay: Test B flooded paddy test; conditions: Flood, 1000 g ai/ha; scale 0 to 100
Summary of the method: as §1

[4] = test system: barnyardgrass (Echinochloa crus-galli); assay: Test B flooded paddy test; conditions: Flood, 1000 g ai/ha; scale 0 (no effect) to 100 (complete control)
Summary of the method: as §1

[5] = test system: pigweed (Amaranthus retroflexus); assay: Test B pre/postemergence
Summary of the method: (§2)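 Test chemicals in a non-phytotoxic solvent mixture with surfactant were applied preemergence to planted seeds and postemergence to plants 2 to 18 cm tall (1- to 4-leaf stage). After 13 to 15 days in a greenhouse, injury was visually rated against untreated controls on a 0 to 100 scale.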

[6] = test system: lambsquarters (Chenopodium album); assay: Test B pre/postemergence; conditions: for Plant response rating, Lambsquarters: 500 g ai/ha
Summary of the method: as §2

[7] = test system: morningglory (Ipomoea coccinea); assay: Test B pre/postemergence
Summary of the method: as §2

[8] = test system: wheat (Triticum aestivum); assay: Test B pre/postemergence
Summary of the method: as §2

[9] = test system: Surinam grass (Brachiaria decumbens); assay: Test B pre/postemergence
Summary of the method: as §2

[10] = test system: cocklebur (Xanthium strumarium); assay: Test B pre/postemergence
Summary of the method: as §2

[11] = test system: crabgrass (Digitaria sanguinalis); assay: Test B pre/postemergence
Summary of the method: as §2

[12] = test system: barnyardgrass (Echinochloa crus-galli); assay: Test B pre/postemergence
Summary of the method: as §2

[13] = test system: velvetleaf (Abutilon theophrasti); assay: Test B pre/postemergence
Summary of the method: as §2

[14] = test system: giant foxtail (Setaria faberii); assay: Test B pre/postemergence
Summary of the method: as §2

[15] = test system: corn (Zea mays); assay: Test B pre/postemergence
Summary of the method: as §2

[16] = test system: blackgrass (Alopecurus myosuroides); assay: Test B postemergence
Summary of the method: as §2

[17] = test system: wild oat (Avena fatua); assay: Test B postemergence
Summary of the method: as §2

[18] = Postemergence, 125 g ai/ha, scale 0 to 100 (0 no effect, 100 complete control)
[19] = Postemergence, 500 g ai/ha, scale 0 to 100
[20] = Preemergence, 125 g ai/ha, scale 0 to 100 (0 no effect, 100 complete control)
[21] = Preemergence, 500 g ai/ha, scale 0 to 100 (0 no effect, 100 complete control)
[22] = 125 g ai/ha, scale 0 to 100 (0 no effect, 100 complete control)

CC(=O)NN=Cc1nc(C2CC2)nc(N)c1Br [Compound 51]
Plant response rating, Sedge, Umbrella [1]: 0 | Plant response rating, Ducksalad [2]: 0 | Plant response rating, Rice [3]: 0 | Plant response rating, Barnyardgrass [4]: 0 | Pigweed plant response rating [5, 18]: 80 | Plant response rating, Pigweed [5, 19]: 90 | Plant response rating, Pigweed [5, 20]: 10 | Plant response rating, Pigweed [5, 21]: 70 | Lambsquarters plant response rating [6, 18]: 80 | Plant response rating, Lambsquarters ([6]; Postemergence, scale 0 to 100): 90 | Plant response rating, Lambsquarters ([6]; Preemergence, scale 0 to 100 (0 no effect, 100 complete control)): 80 | Morningglory plant response rating [7, 18]: 80 | Plant response rating, Morningglory [7, 19]: 90 | Plant response rating, Morningglory [7, 20]: 0 | Plant response rating, Morningglory [7, 21]: 40 | Wheat plant response rating [8, 18]: 30 | Plant response rating, Wheat [8, 19]: 40 | Plant response rating, Wheat [8, 20]: 0 | Plant response rating, Wheat [8, 21]: 0 | Surinam Grass plant response rating [9, 18]: 0 | Plant response rating, Surinam Grass [9, 19]: 40 | Plant response rating, Surinam Grass [9, 20]: 0 | Plant response rating, Surinam Grass [9, 21]: 0 | Cocklebur plant response rating [10, 18]: 80 | Plant response rating, Cocklebur [10, 19]: 90 | Plant response rating, Cocklebur [10, 20]: 0 | Plant response rating, Cocklebur [10, 21]: 20 | Crabgrass plant response rating [11, 18]: 30 | Plant response rating, Crabgrass [11, 19]: 60 | Plant response rating, Crabgrass [11, 20]: 0 | Plant response rating, Crabgrass [11, 21]: 0 | Barnyardgrass plant response rating [12, 18]: 20 | Plant response rating, Barnyardgrass [12, 19]: 60 | Plant response rating, Barnyardgrass [12, 20]: 0 | Plant response rating, Barnyardgrass [12, 21]: 0 | Velvetleaf plant response rating [13, 18]: 70 | Plant response rating, Velvetleaf [13, 19]: 80 | Plant response rating, Velvetleaf [13, 20]: 0 | Plant response rating, Velvetleaf [13, 21]: 0 | Foxtail, Giant plant response rating [14, 18]: 0 | Plant response rating, Foxtail, Giant [14, 19]: 30 | Plant response rating, Foxtail, Giant [14, 20]: 0 | Plant response rating, Foxtail, Giant [14, 21]: 0 | Corn plant response rating [15, 18]: 0 | Plant response rating, Corn [15, 19]: 0 | Plant response rating, Corn [15, 20]: 0 | Plant response rating, Corn [15, 21]: 0 | Blackgrass plant response rating [16, 22]: 20 | Plant response rating, Blackgrass ([16]; 500 g ai/ha, scale 0 to 100): 30 | Oat, Wild plant response rating [17, 22]: 20 | Plant response rating, Oat, Wild ([17]; 500 g ai/ha, scale 0 to 100): 30
